#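 These data come from cells grown in 96-well plates and exposed to compound for 48 hours at five concentrations. Here, GI50 denotes the concentration required for 50% inhibition of growth.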 The source made the active and inactive calls. Rule as the data show it: active = GI50 up to about 1.1 µM and inactive = higher.
# Assays:
# Test in all cases: NCI tumour cell line growth inhibition, 48 h
# HOP-62 = tested on: HOP-62
# MOLT-4 = tested on: MOLT-4
# UO-31 = tested on: UO-31
# CCRF-CEM = tested on: CCRF-CEM
# UACC-62 = tested on: UACC-62
# MDA-N = tested on: MDA-N
# SK-MEL-2 = tested on: SK-MEL-2
# SK-MEL-5 = tested on: SK-MEL-5
# NCI-H23 = tested on: NCI-H23
# ACHN = tested on: ACHN
# DU-145 = tested on: DU-145
# A549 = tested on: A549
# SR = tested on: SR
# SF-539 = tested on: SF-539
# NCI-H522 = tested on: NCI-H522
# LOX IMVI = tested on: LOX IMVI
# MCF7 = tested on: MCF7
# SW-620 = tested on: SW-620
# U-251 = tested on: U-251
# HCT-15 = tested on: HCT-15
# UACC-257 = tested on: UACC-257
# HCT-116 = tested on: HCT-116
# T47D = tested on: T47D
# NCI/ADR-RES = tested on: NCI/ADR-RES
# PC-3 = tested on: PC-3
# MDA-MB-231 = tested on: MDA-MB-231
# OVCAR-8 = tested on: OVCAR-8
# A498 = tested on: A498
# 786-0 = tested on: 786-0
# OVCAR-5 = tested on: OVCAR-5
# KM12 = tested on: KM12
# SF-295 = tested on: SF-295
# CAKI-1 = tested on: CAKI-1
# NCI-H226 = tested on: NCI-H226
# Hs-578T = tested on: Hs-578T
# M14 = tested on: M14
# SF-268 = tested on: SF-268
# SN12C = tested on: SN12C
# COLO 205 = tested on: COLO 205
# HT-29 = tested on: HT-29
# MDA-MB-435 = tested on: MDA-MB-435
# OVCAR-3 = tested on: OVCAR-3
# K562 = tested on: K562
# SK-OV-3 = tested on: SK-OV-3
# IGROV-1 = tested on: IGROV-1
# SNB-19 = tested on: SNB-19
# HL-60 = tested on: HL-60
# NCI-H460 = tested on: NCI-H460
# SNB-75 = tested on: SNB-75
# RXF 393 = tested on: RXF 393
# OVCAR-4 = tested on: OVCAR-4
# HOP-92 = tested on: HOP-92
# HCC 2998 = tested on: HCC 2998
# EKVX = tested on: EKVX
# SK-MEL-28 = tested on: SK-MEL-28
# RPMI-8226 = tested on: RPMI-8226
smiles,measurement,setting,value
CC(=O)OC1C(Oc2c(C)cc3c(c2O)[C@@H](C)CC[C@@H]3[C@@H](C)CCC=C(C)C)OCC(O)C1O (some centres undefined),GI50,HOP-62,17.3 µM (inactive)
same,GI50,MOLT-4,22.6 µM (inactive)
same,GI50,UO-31,17.3 µM (inactive)
same,GI50,CCRF-CEM,22.8 µM (inactive)
same,GI50,UACC-62,18.3 µM (inactive)
same,GI50,MDA-N,21 µM (inactive)
same,GI50,SK-MEL-2,25.3 µM (inactive)
same,GI50,SK-MEL-5,18.1 µM (inactive)
same,GI50,NCI-H23,17.9 µM (inactive)
same,GI50,ACHN,20.2 µM (inactive)
same,GI50,DU-145,16.2 µM (inactive)
same,GI50,A549,14.8 µM (inactive)
same,GI50,SR,22.9 µM (inactive)
same,GI50,SF-539,18.5 µM (inactive)
same,GI50,NCI-H522,21.2 µM (inactive)
same,GI50,LOX IMVI,18.2 µM (inactive)
same,GI50,MCF7,20.9 µM (inactive)
same,GI50,SW-620,18.7 µM (inactive)
same,GI50,U-251,17.3 µM (inactive)
same,GI50,HCT-15,17.5 µM
same,GI50,UACC-257,18.4 µM (inactive)
same,GI50,HCT-116,18.2 µM (inactive)
same,GI50,T47D,22.4 µM (inactive)
same,GI50,NCI/ADR-RES,21.1 µM (inactive)
same,GI50,PC-3,20.3 µM (inactive)
same,GI50,MDA-MB-231,19.8 µM (inactive)
same,GI50,OVCAR-8,21.9 µM (inactive)
same,GI50,A498,20.3 µM (inactive)
same,GI50,786-0,18.4 µM (inactive)
same,GI50,OVCAR-5,16.9 µM (inactive)
same,GI50,KM12,15.9 µM (inactive)
same,GI50,SF-295,19.4 µM (inactive)
same,GI50,CAKI-1,19.5 µM (inactive)
same,GI50,NCI-H226,17.6 µM (inactive)
same,GI50,Hs-578T,21.5 µM (inactive)
same,GI50,M14,16.9 µM (inactive)
same,GI50,SF-268,18.2 µM (inactive)
same,GI50,SN12C,17.5 µM (inactive)
same,GI50,COLO 205,16.6 µM (inactive)
same,GI50,HT-29,14.4 µM (inactive)
same,GI50,MDA-MB-435,14.6 µM (inactive)
same,GI50,OVCAR-3,15.7 µM (inactive)
same,GI50,K562,13.5 µM (inactive)
same,GI50,SK-OV-3,19.3 µM (inactive)
same,GI50,IGROV-1,19.1 µM (inactive)
same,GI50,SNB-19,19.6 µM (inactive)
same,GI50,HL-60,21.4 µM (inactive)
same,GI50,NCI-H460,16.9 µM (inactive)
C=CC(C)(C)C(=C)C(=O)Nc1ccccc1I,GI50,HOP-62,> 100 µM (inactive)
same,GI50,UO-31,> 100 µM (inactive)
same,GI50,CCRF-CEM,19.3 µM (inactive)
same,GI50,UACC-62,> 100 µM (inactive)
same,GI50,MDA-N,> 100 µM (inactive)
same,GI50,SK-MEL-2,> 100 µM (inactive)
same,GI50,SK-MEL-5,> 100 µM (inactive)
same,GI50,NCI-H23,> 100 µM (inactive)
same,GI50,SNB-75,> 100 µM (inactive)
same,GI50,ACHN,> 100 µM (inactive)
same,GI50,DU-145,> 100 µM (inactive)
same,GI50,A549,> 100 µM (inactive)
same,GI50,SR,86.1 µM (inactive)
same,GI50,RXF 393,> 100 µM (inactive)
same,GI50,LOX IMVI,73.6 µM (inactive)
same,GI50,OVCAR-4,> 100 µM (inactive)
same,GI50,MCF7,> 100 µM (inactive)
same,GI50,SW-620,> 100 µM (inactive)
same,GI50,HOP-92,> 100 µM (inactive)
same,GI50,U-251,> 100 µM (inactive)
same,GI50,HCT-15,> 100 µM
same,GI50,UACC-257,> 100 µM (inactive)
same,GI50,HCT-116,81.8 µM (inactive)
same,GI50,T47D,> 100 µM (inactive)
same,GI50,HCC 2998,> 100 µM (inactive)
same,GI50,NCI/ADR-RES,> 100 µM (inactive)
same,GI50,PC-3,> 100 µM (inactive)
same,GI50,MDA-MB-231,> 100 µM (inactive)
same,GI50,OVCAR-8,> 100 µM (inactive)
same,GI50,A498,> 100 µM (inactive)
same,GI50,786-0,2.29 µM (inactive)
same,GI50,OVCAR-5,> 100 µM (inactive)
same,GI50,KM12,> 100 µM (inactive)
same,GI50,SF-295,> 100 µM (inactive)
same,GI50,CAKI-1,> 100 µM (inactive)
same,GI50,NCI-H226,> 100 µM (inactive)
same,GI50,Hs-578T,> 100 µM (inactive)
same,GI50,M14,> 100 µM (inactive)
same,GI50,SF-268,> 100 µM (inactive)
same,GI50,SN12C,> 100 µM (inactive)
same,GI50,COLO 205,> 100 µM (inactive)
same,GI50,EKVX,83.9 µM (inactive)
same,GI50,HT-29,> 100 µM (inactive)
same,GI50,MDA-MB-435,> 100 µM (inactive)
same,GI50,SK-MEL-28,> 100 µM (inactive)
same,GI50,OVCAR-3,> 100 µM (inactive)
same,GI50,K562,> 100 µM (inactive)
same,GI50,SK-OV-3,> 100 µM (inactive)
same,GI50,SNB-19,> 100 µM (inactive)
same,GI50,RPMI-8226,98.4 µM (inactive)
same,GI50,NCI-H460,> 100 µM (inactive)
